Results: patent publication US20090305276A1, “Method for Predicting Skin Sensitizing Activity of Compounds” (priority 2008, published 2009)
Read-outs that look alike come from different tables or passages of the source.

What was measured:
IL-8 = IL-8 (interleukin-8) marker gene expression in cultured mammalian cells; format: cell-based; set-up: key: The ++ signs indicate positive response and the number represents the magnitude of response; The ++ signs indicate positive response and the number represents the magnitude of response; −−−: The dashed lines indicate no measurable response; −−−−: The dashed lines indicate no measurable response; −−−−−: The dashed lines indicate no measurable response; conditions: gene marker response, preliminary data
From the text: (§1) Specifically, chemicals would be placed in an appropriate vehicle such as DMSO and applied to appropriate mammalian cells, such as human keratinocytes (HaCat cells), 3D human skin cells, normal human epithelial cells (NHEK cells), MCF7 cells, H4IIE cells (ATCC Accession #CRL-1548), or combination cultures including keratinocyte and dendritic cells. Following exposure times of 6, 24, and 72 hr the expression levels of several genes that are associated with an increase risk for sensitization type reactions. The expression of key gene markers associated with sensitization that include but are not limited to quinone reductase, IL-8, CD-86, aldo-keto reductase, thioredoxin, and thioredoxin reductase is measured by RT-PCR.
(§2) In specific embodiments, the expression of gene markers is measured. Appropriate gene markers for the methods of the invention include but are not limited to quinone reductase, IL-8, CD-86, aldo-keto reductase, thioredoxin, and thioredoxin reductase. Expression levels may be measured by any appropriate method of measuring gene expression, including but not limited to polymerase chain reaction (PCR), reverse transcriptase PCR (RT-PCR), fluorescent in situ hybridization (FISH), branched DNA (bDNA) assay, differential display, RNA interference, reporter genes, microarrays, and proteomics. For instance, expression levels may be measured by RT-PCR in at least triplicates. The standard protocols for performing RT-PCR may be obtained from Invitrogen, (Carlsbad, Calif.). Standard methods and protocols for measuring gene expression are described in the literature and in treatises such as Sambrook et al., “Molecular Cloning: A Laboratory Manual” and Avison, Matthew, “Measuring Gene Expression,” Taylor and Francis (2006). These protocols are incorporated herein by reference in their entirety.
(§3) As shown in Table 2 (below), preliminary data were collected and used to build the algorithm for predicting the sensitization. NQO1 is quinone reductase; IL-8 is interleukin-8; and AKR is aldo-keto reductase.
(§4) The compounds listed in Table 2 are known skin sensitizers with different magnitudes of effect. In this example, three gene markers are measured to develop a relationship between the magnitude of response, the number of genes responding above about 15%, and the minimum exposure concentration where expression occurred. The ++ signs indicate positive response and the number represents the magnitude of response. The dashed lines indicate no measurable response.

NQO1 = NQO1 (quinone reductase) marker gene expression in cultured mammalian cells; format: cell-based; set-up: key: The ++ signs indicate positive response and the number represents the magnitude of response; The ++ signs indicate positive response and the number represents the magnitude of response; −−−: The dashed lines indicate no measurable response; −−−−: The dashed lines indicate no measurable response; −−−−−: The dashed lines indicate no measurable response; conditions: gene marker response, preliminary data
From the text: as §1, §2, §3, §4

AKR = AKR (aldo-keto reductase) marker gene expression in cultured mammalian cells; format: cell-based; set-up: key: The ++ signs indicate positive response and the number represents the magnitude of response; The ++ signs indicate positive response and the number represents the magnitude of response; −−−: The dashed lines indicate no measurable response; −−−−: The dashed lines indicate no measurable response; −−−−−: The dashed lines indicate no measurable response; conditions: gene marker response, preliminary data
From the text: as §1, §2, §3, §4

skin = conditions: cited from earlier work
[1] = system: local draining lymph nodes (lymphocyte proliferation); conditions: known LLNA data; estimated concentration required to produce a stimulation index of 3; cited from earlier work
[2] = known skin sensitizers with different magnitudes of effect

O=C(O)c1ccccc1 [Benzoic Acid]
IL-8 (IL-8): −−−−−
NQO1 (NQO1): −−−−
AKR (AKR): −−−−−
Sensitizer Class (skin; [2]): Non-

O=C(C=Cc1ccccc1)OCc1ccccc1 [Benzyl Cinnamate]
IL-8 (IL-8): −−−
NQO1 (NQO1): ++
AKR (AKR): ++

CC=Cc1ccc(O)c(OC)c1 [Isoeugenol]
IL-8 (IL-8): +
NQO1 (NQO1): +
AKR (AKR): ++
LLNA E3C [1]: 110
Sensitizer Class (skin; [2]): Moderate

O=C(Oc1ccccc1)c1ccccc1 [Phenyl Benzoate]
IL-8 (IL-8): +
NQO1 (NQO1): +
AKR (AKR): −−−−
LLNA E3C [1]: 863
Sensitizer Class (skin; [2]): Weak

O=C1OC(=O)c2ccccc21 [Phthalic Anhydride]
IL-8 (IL-8): +
NQO1 (NQO1): ++
AKR (AKR): ++
LLNA E3C [1]: 10.8
Sensitizer Class (skin; [2]): Strong

CCCOC(=O)c1cc(O)c(O)c(O)c1 [Propyl Gallate]
IL-8 (IL-8): ++
NQO1 (NQO1): ++
AKR (AKR): ++
LLNA E3C [1]: 15.09
Sensitizer Class (skin; in vivo): Strong

COc1cc(C=O)ccc1O [Vanillin]
IL-8 (IL-8): −−−−
NQO1 (NQO1): +
AKR (AKR): −−−−
Sensitizer Class (skin; [2]): Very Weak
